US5010076A, “1,7-fused 1H-indole-2-carboxylic acid-N-(1,4-benzodiazepin-3-yl)amides” (Kali-Chemie Pharma GmbH, priority 1989, dated 1991)
No end group written: not given here.

Columns and labels:
[1] = target: T1, peripheral CCK receptors (pancreas) (Rattus norvegicus, UniProt P30551); assay: peripheral CCK receptor binding affinity on rat pancreas homogenate (inhibition of 3[H]-CCK-8 binding); parameters: species or system rat (male Wistar); settings: 0.3 nM 3[H]-CCK-8, 90 min, 25° C., pH 7.4, calculated from IC50 by Cheng-Prusoff, read-out: In vitro binding to peripheral CCK receptors (pancreas) pKi values (converted)
T1 construct: Whole pancreas glands from male Wistar rats with a body weight of 150-300 g; from tissue; host or cells: whole pancreas glands of male Wistar rats, washed homogenate
T1 sequence (P30551 1-444): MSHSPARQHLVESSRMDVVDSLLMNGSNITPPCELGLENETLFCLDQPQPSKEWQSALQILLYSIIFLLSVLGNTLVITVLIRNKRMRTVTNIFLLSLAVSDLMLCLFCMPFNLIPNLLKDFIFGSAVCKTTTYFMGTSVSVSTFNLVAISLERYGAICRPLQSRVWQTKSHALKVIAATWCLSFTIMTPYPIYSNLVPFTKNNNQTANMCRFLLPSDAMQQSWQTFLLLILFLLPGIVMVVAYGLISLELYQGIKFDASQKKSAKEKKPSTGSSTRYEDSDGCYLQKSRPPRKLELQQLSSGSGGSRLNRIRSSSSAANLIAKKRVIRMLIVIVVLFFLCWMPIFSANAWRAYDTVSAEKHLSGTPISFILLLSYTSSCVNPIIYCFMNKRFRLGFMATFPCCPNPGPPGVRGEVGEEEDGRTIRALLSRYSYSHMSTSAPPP
Experimental: The affinity of the compounds of formula I for peripheral CCK receptors was measured in vitro on rat pancreas homogenate. The inhibition of the binding of the physiologically relevant octopeptide CCK-8 to peripheral CCK receptors by the test substances was determined.
The receptor binding studies were carried out by a modification of the method of van Dijk et al. (J. Neuroscience 4 (1984), 1021-1033), using soya bean trypsin inhibitor (=SBTI) as protease inhibitor. ^3 [H]-CCK-8, code TRK 775, from Amersham Int., having a specific activity of 60-90 Ci/mmol, was used as tritium-labelled CCK-8.
Whole pancreas glands from male Wistar rats with a body weight of 150-300 g, which had been sacrificed by decapitation, were freed of fatty tissue and homogenized for 15 seconds in a 50-fold volume of an ice-cold test buffer solution (10 mmol 2-[4-(2-hydroxyethyl)-piperazin-1-yl]-ethanesulfonic acid (=HEPES), 130 mmol sodium chloride, 5 mmol magnesium chloride, 0.02% bacitracins, 0.01% SBTI, pH 7.4) with a Kinematica Polytron type homogenizer. The homogenates were then centrifuged at 48,000 g for 10 minutes. This washing method was repeated. After the last centrifugation, the residue which was obtained each time in the form of a pellet was suspended in a 550-fold volume of the test buffer solution and immediately used for the measurement.
For the binding test, 500 μl of the tissue homogenate were incubated with 50 μl of test buffer solution or 50 μl of a solution of the compound to be investigated and with 50 μl of a ^3 [H]-CCK-8 solution (final concentration 0.3 nM). The non-specific binding was assumed to be 0.1 μmol CCK-8. The incubation lasted 90 minutes at 25° C. All the compounds were measured 3 times at each of several concentrations.
Aqueous solutions were employed as test substance solutions and were prepared by appropriate dilution of 60×10^-4 molar aqueous stock solutions. Test substances which are sparingly soluble in water were first dissolved in 96% ethanol, and this solution was diluted with sufficient water for the ethanol concentration not to exceed 1.6% by volume in the solution to be tested.
Bound and free ^3 [H]-CCK-8 were separated by filtration through glass fiber filters. The filters were washed twice with 3 ml of HEPES solution each time and then placed in the scintillation solution (SAVE scintillation solution from Packard) in the dark overnight and counted in a Packard TriCarb 1500™liquid scintillation counter. The IC50 of the respective test substance was determined to be that concentration which caused a 50% inhibition of the specific binding of tritiated CCK-8 to the receptors. From this, the corresponding pKi value was calculated using the Cheng-Prusoff equation. […]

[2] = tested on: CCK-induced disturbance of stomach emptying; assay: effect of test substances on CCK-induced disturbances of emptying of the stomach (charcoal transport into duodenum); assay type: in vivo, mouse (female NMRI)
Experimental: Doses of CCK lead to substantial blockade of the transpyloric transport of chyme from the stomach into the duodenum. The ability of the test substances to eliminate this blocking effect of CCK was investigated.
Female NMRI mice having body weights of 20-25 g were used in groups of ten animals each. […] A control group received only the Tylose® solution or the solution containing the solubilizer polyethylene glycol in each case. 60 minutes later the animals were given a subcutaneous injection of 80 Ig/kg CCK-8. After a further 5 minutes the animals were each orally administered 0.3 ml of a charcoal suspension (5% charcoal in 2% strength Tylose solution). The mice were sacrificed 5 minutes later and subsequently dissected. They were examined to find whether charcoal suspension had advanced into the duodenum.
The percentage of animals in which the CCK effect was eliminated and charcoal suspension was found in the duodenum after administration of the test substances was determined.

[3] = tested on: CCK-induced gallbladder emptying; assay: inhibitory effect of test substances on CCK-induced gallbladder emptying (gallbladder weight); assay type: in vivo, mouse (female NMRI)
Experimental: CCK causes a contraction of the muscles of the gallbladder and thus an emptying of the gallbladder. […] Intraperitoneal doses of 0.1 μg/kg CCK-8 may result in the weight of the gallbladders decreasing to about 1/10 of the original weight.
Female NMRI mice having a body weights of 20-25 g were used in groups of 10 animals each. After withdrawal of feed for 24 hours (drinking water ad libitum) the animals received an oral dose of the test substance suspended in a volume of 10 ml/kg of body weight of a 1% strength Tylose® solution (=methylcellulose) or in a volume of 10 ml/kg of body weight of a solubilizer solution which contained 5% glycerol, 87% polyethylene glycol 400, and 8% water. Two control groups each received only the Tylose® solution or the solution containing the solubilizer polyethylene glycol. One of the control groups and all the animals treated with test substance received 0.1 Ig/kg CCK-8 injected i.p. 60 minutes later.
The mice were sacrificed 5 minutes after the CCK-8 administration, and the gallbladders were excised and weighed.
The following Table C lists the percentage inhibition of the CCK-8 effect on gallbladder weights caused by the test substances.

[4] = determination of the minimum toxic dose; assay type: in vivo, mouse (male); settings: mouse, oral; lowest dose causing death or serious symptoms of toxicity; max 300 mg/kg; 24 h
Experimental: Male mice weighing 20-25 g were given maximum oral doses of 300 mg/kg of the test substance. The animals were observed carefully for three hours for symptoms of toxicity. In addition, all symptoms and deaths were recorded for a period of 24 hours after administration. Concomitant symptoms were likewise observed and recorded. If death or serious symptoms of toxicity were observed, further mice were given increasingly lower doses. The lowest dose which caused death or serious symptoms of toxicity is indicated in the following Table A as the minimum toxic dose.

[5] = dose 0.215 μmol/kg mouse oral, CCK-8 s.c. 60 min later
[6] = dose 10 μmol/kg mouse oral, CCK-8 i.p. 60 min later
[7] = dose 100 μmol/kg mouse oral, CCK-8 i.p. 60 min later
[8] = dose 1.0 μmol/kg mouse oral, CCK-8 s.c. 60 min later

In the case of `COc1ccc2c(c1)N(C)C(=O)C(NC(=O)c1cc3cccc4c3n1CCC4)N=C2c1ccccc1` (single isomer, unassigned; (+)) [Example 2b, (+)-3-[(4H-pyrrolo[3,2,1-ij]-5,6-dihydroquinoline-2-carbonyl)-amino]-8-methoxy-1-methyl-2-oxo-5-phenyl-1H-2,3-dihydro-1,4-benzodiazepine], the Ki [1] is reported as 19.5 nM, the “% of Animals in which the CCK Effect was Eliminated” value (“% of Animals” for short) ([2]; dose 10 μmol/kg mouse oral, CCK-8 s.c. 60 min later) is reported as 70% and the “% Inhibition of CCK-induced Gallbladder Emptying” value (shortened to “% Inhibition”) ([3]; dose 46 μmol/kg mouse oral, CCK-8 i.p. 60 min later) is reported as 8.3%.
For `COc1ccc2c(c1)N(C)C(=O)C(NC(=O)c1cc3cccc4c3n1CCC4)N=C2c1ccccc1` (single isomer, unassigned; (-)) [Example 2a, (-)-3-[(4H-pyrrolo[3,2,1-ij]-5,6-dihydroquinoline-2-carbonyl)-amino]-8-methoxy-1-methyl-2-oxo-5-phenyl-1H-2,3-dihydro-1,4-benzodiazepine], the Ki [1] was 0.257 nM, the “% of Animals” value ([2]; dose 0.1 μmol/kg mouse oral, CCK-8 s.c. 60 min later) was 100% and the “% Inhibition” value ([3]; dose 0.46 μmol/kg mouse oral, CCK-8 i.p. 60 min later) was 16%.
In the case of `COc1ccc2c(c1)N(C)C(=O)C(NC(=O)c1cc3cccc4c3n1CCC4)N=C2c1ccccc1` (centres unmarked) [Example 1, 3-[(4H-Pyrrolo[3,2,1-ij]-5,6-dihydroquinoline-2-carbonyl)-amino]-8-methoxy-1-methyl-2-oxo-5-phenyl-1H-2,3-dihydro-1,4-benzodiazepine], the Ki [1] is reported as 1.35 nM, the “% of Animals” value [2, 5] is reported as 50% and the “% Inhibition” value ([3]; dose 1 μmol/kg mouse oral, CCK-8 i.p. 60 min later) is reported as under 25%. The “% Inhibition” value [3, 6] was 66% and the Minimum toxic dose [4] was over 300 mg/kg.
For `CN1C(=O)C(NC(=O)c2cc3cccc4c3n2CCC4)N=C(c2ccccc2)c2ccccc21` (centres unmarked) [Example 6, 3-[(4H-Pyrrolo[3,2,1-ij]-5,6-dihydroquinoline-2-carbonyl)-amino]-1-methyl-2-oxo-5-phenyl-1H-2,3-dihydro-1,4-benzodiazepine], the Ki [1] was 3.24 nM, the “% of Animals” value ([2]; dose 0.681 μmol/kg mouse oral, CCK-8 s.c. 60 min later) was 40% and the “% Inhibition” value [3, 6] was 73%.
With `COc1ccc2c(c1)N(C)C(=O)C(NC(=O)c1cc3cccc4c3n1CCC4)N=C2c1ccccc1F` (centres unmarked) [Example 9] the Ki [1] was 0.794 nM, the “% of Animals” value [2, 5] was 50% and the “% Inhibition” value ([3]; dose 4.6 μmol/kg mouse oral, CCK-8 i.p. 60 min later) was under 25%. For the same compound, the “% Inhibition” value [3, 7] was 99% and the Minimum toxic dose [4] was over 300 mg/kg.
In the case of `COc1ccc2c(c1)N(C)C(=O)C(NC(=O)c1cc3cccc4c3n1CCC4)N=C2c1ccc(F)cc1F` (centres unmarked) [Example 15], the Ki [1] is reported as 1.23 nM, the “% of Animals” value [2, 8] is reported as 57% and the “% of Animals” value ([2]; dose 0.10* μmol/kg mouse oral, * = administered in solution containing solubilizer (PEG 400)) is reported as 90%. The “% Inhibition” value [3, 6] was under 25%, the “% Inhibition” value [3, 7] was 100% and the “% Inhibition” value ([3]; dose 0.1* μmol/kg mouse oral, * = administered in solution containing solubilizer) was under 25%.
For `CN1C(=O)C(NC(=O)c2cc3cccc4c3n2CCC4)N=C(c2c(F)cccc2F)c2ccccc21` (centres unmarked) [Example 20], the Ki [1] was 0.851 nM, the “% of Animals” value [2, 8] was 50% and the “% Inhibition” value [3, 6] was 25%. It also gave a Minimum toxic dose [4] of over 300 mg/kg.
With `CN1C(=O)C(NC(=O)c2cc3cccc4c3n2CC4)N=C(c2ccccc2)c2ccccc21` (centres unmarked) [Example 33] the Ki [1] was 3.72 nM, the “% of Animals” value [2, 8] was 50% and the “% Inhibition” value [3, 6] was 19%. For the same compound, the Minimum toxic dose [4] was over 300 mg/kg.
With “CCK-8: the octapeptide CCK-8 is the smallest unit with the complete spectrum of CCK effects (DYMGWMDF; ends and bridges not checked; UniProt P06307 96-103, looked up) [reference compound]” the “animals with traces of charcoal suspension in the duodenum” value ([2]; control animals which received a dose of CCK (80 Ig/kg CCK-8 subcutaneous), no test substance) was “not more than 5%” and the “weight of the gallbladders decreasing to fraction of the original weight” value ([3]; intraperitoneal 0.1 μg/kg CCK-8) was “about 1/10”.
